Source: US8148531B2 (Chroma Therapeutics Ltd., priority 2005, dated 2012)

Columns and labels:
HUT cell line = assay: Cell inhibition assay (SRB cell viability), HUT; assay type: cell-based; settings: IC50 range class, 72 h, read-out: Inhibitor Activity vs HUT cell line
How it was run: (§1)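 Log-phase cells seeded at 1000 cells/well, grown 24 h, then exposed to compounds (20 uM final) for 72 h. Viability read by sulphorhodamine B staining as % inhibition versus DMSO; IC50 from eight-point sigmoidal variable-slope fit.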

U937 cell line = assay: Cell inhibition assay (SRB cell viability), U937; assay type: cell-based; settings: Homo sapiens, U-937, IC50 range class, 72 h, read-out: Inhibitor Activity vs U937 cell line
How it was run: as §1

Aurora-B = Aurora-B (Homo sapiens, UniProt Q96GD4); assay: Aurora-B enzyme assay (identical protocol as Aurora-A); assay type: biochemical; settings: IC50 range class; read-out: Inhibitor Activity vs Aurora-B
How it was run: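 Aurora-B was assayed in the same way as Aurora-A: kinase and γ-33P-ATP were incubated for 1 h at 37 °C in myelin basic protein-coated scintillation plates. After washing, bound radioactivity was counted. IC50 values came from a variable-slope sigmoidal fit of % activity against log compound concentration.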

Aurora-A = target: T1, Aurora-A (Homo sapiens, UniProt O14965); assay: Aurora-A enzyme assay (MBP-coated Flashplate, γ-33P-ATP); assay type: biochemical; settings: IC50 range class; read-out: Inhibitor Activity vs Aurora-A
T1 sequence (O14965 1-403): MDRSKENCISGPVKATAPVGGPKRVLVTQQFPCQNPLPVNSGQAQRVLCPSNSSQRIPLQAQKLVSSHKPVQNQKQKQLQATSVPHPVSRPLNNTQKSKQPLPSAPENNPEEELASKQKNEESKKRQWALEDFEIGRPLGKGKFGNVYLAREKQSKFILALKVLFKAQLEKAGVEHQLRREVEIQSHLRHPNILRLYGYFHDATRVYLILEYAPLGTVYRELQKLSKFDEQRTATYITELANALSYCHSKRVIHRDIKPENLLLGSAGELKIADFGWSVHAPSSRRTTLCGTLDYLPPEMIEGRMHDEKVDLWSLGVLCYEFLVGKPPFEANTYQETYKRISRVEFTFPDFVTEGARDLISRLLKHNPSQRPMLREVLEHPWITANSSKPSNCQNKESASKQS
How it was run: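 Aurora-A incubated with γ-33P-ATP in myelin basic protein-coated Flashplate wells, 1 h at 37° C, then washed and scintillation counted. IC50 obtained by sigmoidal variable-slope nonlinear regression of % activity against log compound concentration.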

HCT 116 cell line = assay: Cell inhibition assay (SRB cell viability), HCT 116; assay type: cell-based; settings: Homo sapiens, IC50 range class, 72 h, read-out: Inhibitor Activity vs HCT 116 cell line
How it was run: as §1

Aurora-B, sequence (Q96GD4 whole entry): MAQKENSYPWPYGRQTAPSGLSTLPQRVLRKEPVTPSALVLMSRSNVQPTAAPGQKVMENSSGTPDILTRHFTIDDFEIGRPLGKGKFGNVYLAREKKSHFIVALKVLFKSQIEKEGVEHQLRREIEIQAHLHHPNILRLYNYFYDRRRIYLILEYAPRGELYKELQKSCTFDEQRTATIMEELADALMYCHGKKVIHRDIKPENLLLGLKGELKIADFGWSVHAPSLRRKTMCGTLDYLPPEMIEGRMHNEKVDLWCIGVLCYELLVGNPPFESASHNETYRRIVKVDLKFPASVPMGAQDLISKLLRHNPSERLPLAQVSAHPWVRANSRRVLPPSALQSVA

COc1cc2c(Sc3ccc(NC(=O)c4ccccc4)cc3)ccnc2cc1OCC[C@H](N)C(=O)OC1CCCC1 [Example 18, (S)-2-Amino-4-[4-(4-benzoylamino-phenylsulfanyl)-6-methoxy-quinolin-7-yloxy]-butyric acid cyclopentyl ester]
IC50 (HUT cell line): < 1 µM
IC50 (U937 cell line): < 1 µM
IC50 (Aurora-B): > 5 µM
IC50 (Aurora-A): < 2 µM
IC50 (HCT 116 cell line): < 1 µM

COc1cc2c(Oc3ccc(NC(=O)c4cccc(F)c4)cc3)ccnc2cc1OCC[C@H](N)C(=O)OC1CCCC1 [Example 55, (S)-2-Amino-4-{4-[4-(3-fluoro-benzoylamino)-phenoxy]-6-methoxy-quinolin-7-yloxy}-butyric acid cyclopentyl ester]
IC50 (HUT cell line): < 1 µM
IC50 (U937 cell line): < 1 µM
IC50 (Aurora-B): 2 to 5 µM
IC50 (Aurora-A): 2 to 5 µM
IC50 (HCT 116 cell line): < 1 µM

COc1cc2c(Oc3ccc(NC(=O)Nc4ccc(C(F)(F)F)cc4)cc3)ccnc2cc1OCC[C@H](N)C(=O)OC1CCCC1 [Example 93, (S)-2-Amino-4-(6-methoxy-4-{4-[3-(4-trifluoromethyl-phenyl)-ureido]-phenoxy}-quinolin-7-yloxy)-butyric acid cyclopentyl ester]
IC50 (HUT cell line): < 1 µM
IC50 (U937 cell line): < 1 µM
IC50 (Aurora-B): 2 to 5 µM
IC50 (Aurora-A): < 2 µM
IC50 (HCT 116 cell line): < 1 µM

COc1cc2c(Oc3ccc(NC(=O)c4ccccc4)cc3)ccnc2cc1OCC[C@H](N)C(=O)OC1CCCC1 [Example 2, (S)-2-Amino-4-[4-(4-benzoylamino-phenoxy)-6-methoxy-quinolin-7-yloxy]-butyric acid cyclopentyl ester]
IC50 (HUT cell line): < 1 µM
IC50 (U937 cell line): < 1 µM
IC50 (Aurora-B): 2 to 5 µM
IC50 (Aurora-A): 2 to 5 µM
IC50 (HCT 116 cell line): < 1 µM

COc1cc2c(Oc3ccc(NC(=O)c4ccccc4)cc3)ccnc2cc1OCC[C@H](N)C(=O)OC(C)(C)C [Example 50, (S)-2-Amino-4-[4-(4-benzoylamino-phenoxy)-6-methoxy-quinolin-7-yloxy]-butyric acid tert-butyl ester]
IC50 (HUT cell line): < 1 µM
IC50 (U937 cell line): < 1 µM
IC50 (Aurora-B): 2 to 5 µM
IC50 (Aurora-A): 2 to 5 µM
IC50 (HCT 116 cell line): < 1 µM

COc1cc2c(Sc3ccc(NC(=O)C4CC4)cc3)ccnc2cc1OCC[C@H](N)C(=O)OC1CCCC1 [Example 20, (S)-2-Amino-4-{4-[4-(cyclopropanecarbonyl-amino)-phenylsulfanyl]-6-methoxy-quinolin-7-yloxy}-butyric acid cyclopentyl ester]
IC50 (HUT cell line): < 1 µM
IC50 (U937 cell line): < 1 µM
IC50 (Aurora-B): > 5 µM
IC50 (Aurora-A): > 5 µM
IC50 (HCT 116 cell line): < 1 µM
